# Test results taken from patent US11285127B2, “Compositions and methods for lowering triglycerides without raising LDL-C levels in a subject on concomitant statin therapy” (Amarin Pharmaceuticals Ireland Limited, priority 2013, dated 2022).
# Tested on: patients with fasting triglyceride levels >200 mg/dl and <500 mg/dl despite statin therapy
# Assay: 12-week study: lipoprotein particle concentration (VLDL, LDL, HDL; nuclear magnetic resonance)
# Assay type: in vivo, human
# Conditions: for LDL Particle Concentration, Week 12 EP Median (IQR): MITT; for LDL Particle Concentration, Percent change from Baseline, Median (IQR) / LDL Particle Concentration, Difference from placebo, Estimated median: Week 12, MITT; for LDL Particle Concentration, Difference from placebo, Estimated median: difference in percent change
# Source text: Parameters (a)-(z) can be measured in accordance with any clinically acceptable methodology. For example, triglycerides, total cholesterol, HDL-C and fasting blood sugar can be sample from serum and analyzed using standard photometry techniques. VLDL-TG, LDL-C and VLDL-C can be calculated or determined using serum lipoprotein fractionation by preparative ultracentrifugation and subsequent quantitative analysis by refractometry or by analytic ultracentrifugal methodology. Apo A1, Apo B and hsCRP can be determined from serum using standard nephelometry techniques. Lipoprotein (a) can be determined from serum using standard turbidimetric immunoassay techniques. LDL particle number and particle size can be determined using nuclear magnetic resonance (NMR) spectrometry. Remnants lipoproteins and LDL-phospholipase A2 can be determined from EDTA plasma or serum and serum, respectively, using enzymatic immunoseparation techniques. Oxidized LDL, intercellular adhesion molecule-1 and interleukin-2 levels can be determined from serum using standard enzyme immunoassay techniques. These techniques are described in detail in standard textbooks, for example Tietz Fundamentals of Clinical Chemistry, 6th Ed. (Burtis, Ashwood and Borter Eds.), WB Saunders Company.
# A multi-center, placebo-controlled, randomized, double-blind, 12-week study was performed to evaluate the efficacy and safety of >96% E-EPA in patients with fasting triglyceride levels >200 mg/dl and <500 mg/dl despite statin therapy (the mean of two qualifying entry values needed to be >185 mg/dl and at least one of the values needed to be >200 mg/dl). The primary objective of the study was to determine the efficacy of >96% E-EPA 2 g daily and 4 g daily, compared to placebo, in lowering fasting TG levels in patients with high risk for cardiovascular disease and with fasting TG levels 200 mg/dl and <500 mg/dl, despite treatment to LDL-C goal on statin therapy.
# The secondary objectives of this study were the following: • 1. To determine the safety and tolerability of >96% E-EPA 2 g daily and 4 g daily; • 2. To determine the effect of >96% E-EPA on lipid and apolipoprotein profiles including total cholesterol (TC), non-high-density lipoprotein cholesterol (non-HDL-C), low density lipoprotein cholesterol (LDL-C), high density lipoprotein cholesterol (HDL-C), and […]; • 3. To determine the effect of >96% E-EPA on lipoprotein associated phospholipase A2 (Lp-PLA2) from baseline to week 12; • 4. To determine the effect of >96% E-EPA on low-density lipoprotein (LDL) particle number and size; • 5. To determine the effect of >96% E-EPA on oxidized LDL; • 6. To determine the effect of >96% E-EPA on fasting plasma glucose (FPG) and hemoglobin A1c (HbA1c); • 7. To determine the effect of >96% E-EPA on insulin resistance; • 8. To determine the effect of >96% E-EPA on high-sensitivity C-reactive protein (hsCRP); • 9. To determine the effects of >96% E-EPA 2 g daily and 4 g daily on the incorporation of fatty acids into red blood cell membranes and into plasma phospholipids; • 10. To explore the relationship between baseline fasting TG levels and the reduction in fasting TG levels; and • 11. To explore the relationship between changes of fatty acid concentrations in plasma and red blood cell membranes, and the reduction in fasting TG levels.
# The primary efficacy variable for the double-blind treatment period was percent change in TG from baseline to Week 12 endpoint. […]
# [1] = 2 g/day, 12 weeks, placebo-adjusted Hodges-Lehmann median
# [2] = 4 g/day, 12 weeks, placebo-adjusted Hodges-Lehmann median
# [3] = 4 g/day, 12 weeks, placebo-adjusted Hodges-Lehmann median, listed as IPE
# [4] = IPE 2 g/day (n = 222), 12 weeks
structure (smiles),measurement,setting,value
"CC/C=C\C/C=C\C/C=C\C/C=C\C/C=C\CCCC(=O)OCC [AMR101, ethyl eicosapentaenoate]","IDL particle concentration, Median Change From Baseline IPE 2 g/day vs Placebo",[1],8.6%
same,"Large HDL particle concentration, Median Change From Baseline IPE 2 g/day vs Placebo",[1],−13.5%
same,"Large LDL particle concentration, Median Change From Baseline IPE 2 g/day vs Placebo",[1],26.5%
same,"Large VLDL particle concentration, Median Change From Baseline IPE 2 g/day vs Placebo",[1],−24.2%
same,"Medium HDL particle concentration, Median Change From Baseline IPE 2 g/day vs Placebo",[1],−4.5%
same,"Medium VLDL particle concentration, Median Change From Baseline IPE 2 g/day vs Placebo",[1],2.6%
same,"Small HDL particle concentration, Median Change From Baseline IPE 2 g/day vs Placebo",[1],−0.2%
same,"Small LDL particle concentration, Median Change From Baseline IPE 2 g/day vs Placebo",[1],−14.7%
same,"Small VLDL particle concentration, Median Change From Baseline IPE 2 g/day vs Placebo",[1],16.5%
same,"Total HDL particle concentration, Median Change From Baseline IPE 2 g/day vs Placebo",[1],−3.1%
same,"Total LDL particle concentration, Median Change From Baseline IPE 2 g/day vs Placebo",[1],−7.5%
same,"Total VLDL particle concentration, Median Change From Baseline IPE 2 g/day vs Placebo",[1],1.8%
same,Reduction of median concentration of small LDL particles over baseline when adjusted for placebo control,"4 g per day, 12 weeks",13.5%
same,Reduction of median concentration of total HDL over baseline when adjusted for placebo,"4 g per day, 12 weeks",7.4%
same,Reduction of median concentration of total LDL over baseline when adjusted for placebo,"4 g per day, 12 weeks",7.7%
same,Reduction of median concentration of total VLDL over baseline when adjusted for placebo,"4 g per day, 12 weeks",12.2%
same,"IDL particle concentration, Median Change From Baseline IPE 4 g/day vs Placebo",[2],10.0%
same,"Medium HDL particle concentration, Median Change From Baseline IPE 4 g/day vs Placebo",[2],−6.5%
same,"Small HDL particle concentration, Median Change From Baseline IPE 4 g/day vs Placebo",[2],−2.8%
same,"Small LDL particle concentration, Median Change From Baseline IPE 4 g/day vs Placebo",[2],−13.5%
same,"Small VLDL particle concentration, Median Change From Baseline IPE 4 g/day vs Placebo",[2],2.8%
same,"Total HDL particle concentration, Median Change From Baseline IPE 4 g/day vs Placebo",[2],−7.4%
same,"Total LDL particle concentration, Median Change From Baseline IPE 4 g/day vs Placebo",[2],−7.7%
same,"Total VLDL particle concentration, Median Change From Baseline IPE 4 g/day vs Placebo",[2],−12.2%
same,"Large HDL particle concentration, Median Change From Baseline IPE 4 g/day vs Placebo",[3],−31.0%
same,"Large LDL particle concentration, Median Change From Baseline IPE 4 g/day vs Placebo",[3],34.2%
same,"Large VLDL particle concentration, Median Change From Baseline IPE 4 g/day vs Placebo",[3],−46.4%
same,"Medium VLDL particle concentration, Median Change From Baseline IPE 4 g/day vs Placebo",[3],−12.1%
same,"Small LDL particle concentration, Median Change From Baseline IPE 4 g/day vs Placebo",[3],−13.5%
same,"Total HDL particle concentration, Median Change From Baseline IPE 4 g/day vs Placebo",[3],−7.4%
same,"Total LDL particle concentration, Median Change From Baseline IPE 4 g/day vs Placebo",[3],−7.7%
same,"Total VLDL particle concentration, Median Change From Baseline IPE 4 g/day vs Placebo",[3],−12.2%
same,"LDL Particle Concentration, Week 12 EP Median (IQR)","AMR101 2g/d + statin, n 222",1215.0 (355.0) nmol/L
same,"LDL Particle Concentration, Percent change from Baseline, Median (IQR)",AMR101 2g/d + statin,4.7 (29.2) %
same,"LDL Particle Concentration, Difference from placebo, Estimated median",AMR101 2g/d + statin,−7.5
same,"LDL Particle Concentration, Week 12 EP Median (IQR)","AMR101 4g/d + statin, n 216",1190.5 (512.0) nmol/L
same,"LDL Particle Concentration, Percent change from Baseline, Median (IQR)",AMR101 4g/d + statin,3.8 (31.8) %
same,"LDL Particle Concentration, Difference from placebo, Estimated median",AMR101 4g/d + statin,−7.7
same,"IDL particle concentration, Change from Baseline % (median)",[4],10.5%
same,"IDL particle concentration, End of Treatment (median)",[4],63.5 nmol/L
same,"Large HDL particle concentration, Change from Baseline % (median)",[4],−4.0%
same,"Large HDL particle concentration, End of Treatment (median)",[4],2.4 µmol/L
same,"Large LDL particle concentration, Change from Baseline % (median)",[4],47.7%
same,"Large LDL particle concentration, End of Treatment (median)",[4],202.0 nmol/L
same,"Large VLDL particle concentration, Change from Baseline % (median)",[4],−19.7%
same,"Large VLDL particle concentration, End of Treatment (median)",[4],10 nM
same,"Medium HDL particle concentration, Change from Baseline % (median)",[4],2.9%
same,"Medium HDL particle concentration, End of Treatment (median)",[4],7.2 µmol/L
same,"Medium VLDL particle concentration, Change from Baseline % (median)",[4],7.9%
same,"Medium VLDL particle concentration, End of Treatment (median)",[4],59.6 nmol/L
same,"Small HDL particle concentration, Change from Baseline % (median)",[4],−0.6%
same,"Small HDL particle concentration, End of Treatment (median)",[4],23.8 µmol/L
same,"Small LDL particle concentration, Change from Baseline % (median)",[4],−4.3%
same,"Small LDL particle concentration, End of Treatment (median)",[4],920.5 nmol/L
same,"Small VLDL particle concentration, Change from Baseline % (median)",[4],22.1%
same,"Small VLDL particle concentration, End of Treatment (median)",[4],49.6 nmol/L
same,"Total HDL particle concentration, Change from Baseline % (median)",[4],0.7%
same,"Total HDL particle concentration, End of Treatment (median)",[4],34.7 µmol/L
same,"Total LDL particle concentration, Change from Baseline % (median)",[4],4.7%
same,"Total LDL particle concentration, End of Treatment (median)",[4],1215 nmol/L
same,"Total VLDL particle concentration, Change from Baseline % (median)",[4],12.0%
